Test results: PubChem BioAssay (NCI)
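Dose response: 5 concentrations. Exposure: 48 h. Format: 96-well plates. Endpoint: linear interpolation; highest concentration if not reached. TGI denotes the concentration required for complete inhibition of growth.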

Key:
Experiment in all cases: NCI tumour cell line growth inhibition, 48 h
SN12K1 renal = system: SN12K1 renal
M19-MEL melanoma = system: M19-MEL melanoma
P388 leukemia = system: P388 leukemia
HOP-18 NSCLC = system: HOP-18 NSCLC
LXFL 529 NSCLC = system: LXFL 529 NSCLC
RXF-631 renal = system: RXF-631 renal

| Compound | TGI (SN12K1 renal) | TGI (M19-MEL melanoma) | TGI (P388 leukemia) | TGI (HOP-18 NSCLC) | TGI (LXFL 529 NSCLC) | TGI (RXF-631 renal) |
| --- | --- | --- | --- | --- | --- | --- |
| Cc1c2c(cc3c1[nH]c1ccccc13)C=NCC2 | 14.4 µM | 33 µM | 17.6 µM | – | – | – |
| C=C1C(=O)OC2(C)C3CCC(C3)C12 (stereo not drawn) | – | > 100 µM | – | > 100 µM | – | – |
| COc1ccccc1-c1cc(=O)c2ccccc2[nH]1 | – | > 100 µM | – | – | > 100 µM | – |
| O=C(NCCCCCCNC(=O)n1cc(F)c(=O)[nH]c1=O)NCCCOCCOCCCNC(=O)C(O)C(O)C(O)C(O)CO (stereo not drawn) | > 2.5 µM | > 2.5 µM | > 2.5 µM | > 2.5 µM | – | – |
| CCN(CC)CCCOC(=O)/C=C/c1c(C)[nH]c(=O)[nH]c1=O | > 625 µM | > 625 µM | > 625 µM | > 625 µM | – | – |
| CCCCCCCCCCCCCCCCSCC(COC)COP(=O)([O-])OCC[N+](C)(C)C (stereo not drawn) | 24.2 µM | 11 µM | 5.26 µM | 16.5 µM | – | – |
| O=C(CC/C=C(/CS(=O)(=O)c1ccccc1)S(=O)(=O)c1ccccc1)c1ccccc1 | – | – | – | > 100 µM | – | – |
| C=C1C[C@@H](O)C[C@@]2(C)C[C@@H]3OC(=O)C(=C)[C@@H]3C[C@H]12 | 35.7 µM | > 100 µM | 8.87 µM | 15.9 µM | – | – |
| CC(=O)OCC1OC(n2cc(F)c(=O)[nH]c2=O)C(N)C(OC(C)=O)C1OC(C)=O (stereo not drawn) | > 100 µM | > 100 µM | > 100 µM | > 100 µM | – | – |
| Nc1nc2c(c(=O)[nH]1)N(C=O)C(CNc1ccc(C(=O)N[C@@H](CCC(=O)O)C(=O)O)cc1)CN2 (stereo partly drawn) | > 125 µM | > 125 µM | > 125 µM | > 125 µM | – | – |
| C/C(=N\NS(=O)(=O)c1ccccc1)c1ccccc1 | > 100 µM | – | > 100 µM | > 100 µM | – | – |
| COC1=C(N=[N+]=[N-])C(=O)c2ncccc2C1=O | – | 3.8 µM | – | – | 3.15 µM | 29.9 µM |
| O=C1O/C(=C(\Br)c2cccc3ccccc23)c2ccccc21 | – | > 58.5 µM | – | 36.4 µM | > 62.7 µM | – |
| Cc1cc(O)c2c(c1O)C(=O)C13C(=C2O)C(=O)C2C(O)C1C1C(O)C3C(=O)C3=C(O)c4c(O)cc(C)c(O)c4C(=O)C321 (stereo not drawn) | 0.848 µM | – | – | 1.17 µM | – | – |
